How the values were obtained:
[1] = Example 5: 1-MCP headspace release versus wt-% 1-MCP/c/α-CD and time; assay type: physicochemical; settings: 5 cm x 10 cm, 250 mL bottle, water injected, average
Description: Using a razor blade, six 5 cm×10 cm rectangles were cut from the coated portions of 20 cm by 20 cm sheets prepared as in Example 3 and having 1.0 wt-%, 2.0 wt-% and 4.0 wt-% 1-MCP/c/α-CD, and the coated rectangles were cured according to the technique of Example 2. The rectangles were individually placed in 250 mL serum bottles. The bottles were sealed with TEFLON® faced silicone septa. Then […] of deionized water was injected into each bottle. […] Bottle headspace was analyzed at 4, 8, 24 and 48 hours after the injection of water, using the technique of Example 3. The results are provided in Table 4 and FIG. 4 and give the average headspace concentration and standard deviation for the different wt-% 1-MCP/c/α-CD coatings as a function of time.

[2] = Example 10: 1-MCP headspace release from inkjet printed multilayer and monolayer films; assay type: physicochemical; settings: 250 mL bottle, 100 μL water
Excerpt: The ink containing 4 wt-% 1-MCP/c/α-CD from Example 9 was loaded back into the previously emptied cartridge. After refilling the cartridge, it was installed into a HP Inkjet 1600C printer (obtained from the Hewlett-Packard Company of Palo Alto, Calif.) and the calibration or head cleaning function was run. A medium density, black cross-hatch pattern obtained from Microsoft EXCEL software program 2003 (obtained from the Microsoft Corporation of Redman, Wash.) was used to format the entire printable page. The EXCEL pattern image was printed onto 3M, CG3460 Transparency Film (polyester film 120 microns thick for HP inkjet printers; obtained from the 3M Company of St. Paul, Minn.) using the dried, milled ink containing 4 wt-% 1-MCP/c/α-CD of Example 9. Immediately after printing, the printed side of the transparency film was overlaid with a 25 μm polyethylene film and then passed by hand about 10 cm beneath a medium pressure mercury arc lamp operating at 79 watts per cm for 3 seconds exposure to the lamp, with the polyethylene side facing the lamp. The methodology simulates a multilayer flexible-package where the inner surface of an outer, transparent, layer of the multilayer flexible material was printed (referred to as reverse printing). The printed surface was then laminated to other layers. The outside layer itself serves to protect the ink from abuse.
The following technique was designed to measure the permeability of 1-MCP, which was released from the reverse inkjet printed 3M Transparency Film, through PE film as the “inner layer” of a multilayer produce package. In a multilayer produce package, as the humidity rises inside the package by respiration of fresh agricultural products, the water vapor reaches a concentration that allows it to diffuse to the outside of the package. In this example, water also diffuses through the ink layer containing 1-MCP/c/α-CD. The reverse printed ink on the PET film releases 1-MCP which diffuses through the PE film into the interior of package (headspace) under a gradient of low 1-MCP concentration inside the bottle headspace and high 1-MCP concentration within the multilayer structure.
Using a paper cutter, a 5.5 cm by 16 cm rectangle (88 cm^2) was cut from the multilayer structure of the printed, cured ink on the PET sheet overlaid with PE. The rectangle was placed in a 250 mL serum bottle. The bottle was then sealed with a TEFLON® faced silicone septa. Then 100 μL of deionized water was injected into the bottle. […] Bottle headspace was analyzed at 0.17, 0.5, 1, 2, 4, and 24 hours after the injection of water using the technique employed in Example 3. The results in Table 8 illustrate 1-MCP headspace concentration as a function of time for the “multilayer” film.
A second piece of PET transparency film was printed as in Example 9 except that the transparency film was not covered with PE film; the printed ImTech UVBLK Series 912 ink was cured on the PET film surface using a medium pressure mercury arc lamp operating at 79 watts per cm in the same manner as for Example 9. Then, using a paper cutter, a 1.2 cm by 16 cm rectangle (19 cm^2) was cut from the sheet. The rectangle was placed in 250 mL serum bottle. The bottle was then sealed with a TEFLON® faced silicone septa. Then 100 μL of deionized water was injected into the bottle. […] Bottle headspace was analyzed at 0.17, 0.5, 1, 2, 4, and 24 hours after the injection of water using the technique employed in Example 3. The headspace concentration of 1-MCP as a function of time is also reported in Table 9 for the “monolayer” film.

Structure (SMILES): CC1=CC1 [1-MCP, 1-methylcyclopropene]
- 1-MCP in Headspace ([1]; 1 wt-% 1-MCP/c/α-CD coated, 4 hours): 0.96 ppm-v/v
- 1-MCP in Headspace ([1]; 1 wt-% 1-MCP/c/α-CD coated, 8 hours): 2.0 ppm-v/v
- 1-MCP in Headspace ([1]; 1 wt-% 1-MCP/c/α-CD coated, 24 hours): 3.6 ppm-v/v
- 1-MCP in Headspace ([1]; 1 wt-% 1-MCP/c/α-CD coated, 48 hours): 4.0 ppm-v/v
- 1-MCP in Headspace ([1]; 2 wt-% 1-MCP/c/α-CD coated, 4 hours): 3.5 ppm-v/v
- 1-MCP in Headspace ([1]; 2 wt-% 1-MCP/c/α-CD coated, 8 hours): 7.8 ppm-v/v
- 1-MCP in Headspace ([1]; 2 wt-% 1-MCP/c/α-CD coated, 24 hours): 17.8 ppm-v/v
- 1-MCP in Headspace ([1]; 2 wt-% 1-MCP/c/α-CD coated, 48 hours): 21.2 ppm-v/v
- 1-MCP in Headspace ([1]; 4 wt-% 1-MCP/c/α-CD coated, 4 hours): 7.5 ppm-v/v
- 1-MCP in Headspace ([1]; 4 wt-% 1-MCP/c/α-CD coated, 8 hours): 13.5 ppm-v/v
- 1-MCP in Headspace ([1]; 4 wt-% 1-MCP/c/α-CD coated, 24 hours): 24.0 ppm-v/v
- 1-MCP in Headspace ([1]; 4 wt-% 1-MCP/c/α-CD coated, 48 hours): 28.0 ppm-v/v
- Headspace concentration of 1-MCP ([2]; 19 cm^2 Monolayer (printed PET, no PE film), 0.17 hours): 0.50 ppm (v/v)
- Headspace concentration of 1-MCP ([2]; 19 cm^2 Monolayer (printed PET, no PE film), 0.5 hours): 0.52 ppm (v/v)
- Headspace concentration of 1-MCP ([2]; 19 cm^2 Monolayer (printed PET, no PE film), 1 hour): 0.50 ppm (v/v)
- Headspace concentration of 1-MCP ([2]; 19 cm^2 Monolayer (printed PET, no PE film), 2 hours): 0.51 ppm (v/v)
- Headspace concentration of 1-MCP ([2]; 19 cm^2 Monolayer (printed PET, no PE film), 4 hours): 0.52 ppm (v/v)
- Headspace concentration of 1-MCP ([2]; 19 cm^2 Monolayer (printed PET, no PE film), 24 hours): 0.49 ppm (v/v)
- Headspace concentration of 1-MCP ([2]; 88 cm^2 Multilayer (inkjet printed PET overlaid with 25 μm PE), 0.17 hours): 0.25 ppm (v/v)
- Headspace concentration of 1-MCP ([2]; 88 cm^2 Multilayer (inkjet printed PET overlaid with 25 μm PE), 0.5 hours): 0.46 ppm (v/v)
- Headspace concentration of 1-MCP ([2]; 88 cm^2 Multilayer (inkjet printed PET overlaid with 25 μm PE), 1 hour): 1.1 ppm (v/v)
- Headspace concentration of 1-MCP ([2]; 88 cm^2 Multilayer (inkjet printed PET overlaid with 25 μm PE), 2 hours): 1.5 ppm (v/v)
- Headspace concentration of 1-MCP ([2]; 88 cm^2 Multilayer (inkjet printed PET overlaid with 25 μm PE), 4 hours): 3.2 ppm (v/v)
- Headspace concentration of 1-MCP ([2]; 88 cm^2 Multilayer (inkjet printed PET overlaid with 25 μm PE), 24 hours): 8.3 ppm (v/v)

Source: patent US8414989B2, “Cyclodextrin compositions, articles, and methods” (Cellresin Technologies, LLC, priority 2011, dated 2013)
